# Experimental data from patent publication US20020034421A1, “Remediation of contaminates including low bioavailability hydrocarbons” (priority 2000, published 2002).
# Where “and” joins values, the source holds several entries; their conditions need not be identical. Equal values may be shown once.
# Assays:
# [1] = Logarithm of the octanol: water partition coefficient; cited from earlier work
# [2] = Crystal solubility at 25° C.; cited from earlier work
# [3] = at 20° C.; cited from earlier work
# [4] = Hydrogen peroxide oxidation of PAHs at near neutral pH (modified Fenton's reagent) in Quakertown silt loam
# [5] = Fenton reaction degradation of PAHs in Quakertown silt loam; details: for % reduced / degraded by Fenton reaction: ratio 10:1 ([H2O2:FeSO4]=[2.0 g:0.2 g]), 24-h oxidation, model soil
# [6] = Fenton reaction degradation of PAHs in MGP soil; details: FR: Fenton's reagent treatment for 24 hours
# Excerpt: Coal tar-contaminated soil was collected from a former manufactured gas plant site in New Jersey. The soil was classified as loamy sand, consisting of 78% sand, 11% silt, and 11% clay.
# Fenton's reagent was generated by mixing hydrogen peroxide (30%, w/v) with FeSO4.7H2O in varying ratios to determine the optimum conditions for the degradation of PAHs. The sequence of reagent addition seemed to be important to ensure that the reaction occurred efficiently, as well as to ensure that the reaction could be safely maintained. Desired amounts of ferrous sulfate were added to 10 g of PAHs-spiked soil or 5 g of MGP soil in 20 mL of distilled water containing 0.02% HgCl2. To the soil slurry, hydrogen peroxide was introduced gradually by pipetting (ca. 0.3 g each with 10-min intervals), and the reaction was allowed to occur for 24 h on an orbital platform shaker at room temperature.
# The soil slurry used for either biodegradation or Fenton-type reaction, or both, was transferred to a 50-mL Teflon centrifuge tube and centrifuged at 18,600× g for 15 min. After removing the supernatant, 10 mL each of dichloromethane and acetone were added to the soil and the soil-solvent suspension was shaken (200 rpm) for 48 h at 30° C. for the extraction of PAHs. The tube was then centrifuged at 18,600× g for 15 min and the solvent mixture was transferred to a 50-mL test tube. After removing excess water (upper layer; ca. 2 mL) by pipetting, 4 g of anhydrous sodium sulfate were mixed with the PAHs-containing solvent to remove residual water completely from solvent. […] The extract was then concentrated to 1 to 2 mL using an evaporator (Büchi Rotavapor; Buchler Instruments Inc., Fort Lee, N.J.) for further analysis.
# The extract was passed through a 0.45-μm PTFE syringe filter to remove any particulates present and analyzed by a gas chromatograph (GC) equipped with a flame ionization detector (Varian Star 3500; Varian Chromatograph Systems, Walnut, Calif.). The GC was installed with a Rtx-5 silica column crossbonded with 5% diphenyl and 95% dimethylpolysiloxane (30 m×0.53 mm inner diameter; Restek Corporation, Bellefonte, Pa.). The oven temperature was programmed at 40° C. for 6 min, followed by a linear increase of 10° C. per minute to 300° C., and then the temperature was held for 15 min. Injector and detector temperatures were maintained at 300° C. Two microliters of the extract were injected and nitrogen was used as a carrier gas.
# [7] = mFR + gallic acid, pH ca. 6.0-6.5
# [8] = Hydrogen Peroxide (2g), 100 mg Ferrous Sulfate, Quakertown silt loam
# [9] = Hydrogen Peroxide (2g), 200 mg Ferrous Sulfate, Data from TABLE 3
# [10] = Hydrogen Peroxide (2g), No FeSO4, Quakertown silt loam
# [11] = ratio 5:1, [H2O2:FeSO4] = [1.0 g:0.2 g], 24 h, Quakertown silt loam
# [12] = ratio 10:1 (footnote d), [H2O2:FeSO4] = [0.2 g:0.2 g] [sic], 24 h, Quakertown silt loam
# [13] = ratio 10:1 (footnote e), [H2O2:FeSO4] = [1.0 g:0.1 g], 24 h, Quakertown silt loam
# [14] = ratio head 1.1, [H2O2:FeSO4] = [0.2 g:0.2 g], 24 h, Quakertown silt loam
SMILES,Log Kow [1],Solubility in water [2] [µg/mL],Vapor Pressure [3],"% remaining in soil ([4]; FR + CaCO3, pH ca. 6.0-6.5) [a %]","% remaining in soil ([4]; mFR + catechol, pH ca. 6.0-6.5)","% remaining in soil [4, 7] [b %]","% remaining in soil [5, 8]","% remaining in soil [5, 9]","% remaining in soil [5, 10]","% remaining in soil [5, 11] [b %]",% reduced / degraded by Fenton reaction [5],"% remaining in soil [5, 12]","% remaining in soil [5, 13]","% remaining in soil [5, 14] [a %]",% remaining in soil [6]
"c1ccc2cc3ccccc3cc2c1 [Anthracene, anthracene]",4.45,0.07,1.9 × 10^−4,78.1,70.8ab %,66.8,76.3b %,61.9c %,92.7a %,75.9,about 40%,61.9c %,79.3b %,100,–
"c1ccc2c(c1)cc1ccc3cccc4ccc2c1c34 [Benzo(a)pyrene, benzo(a)pyrene]",–,–,–,73.1,54.8b %,49.6,10.5b %,3.3c %,73.2a %,35.3,–,3.3% and 3.3c %,60.9d %,84.8,–
"c1ccc2c(c1)ccc1c3ccccc3ccc21 [Chrysene, chrysene]",5.61,0.006,6.3 × 10^−7,100,100a %,91.1,72.6a %,88.1b %,77.0ab %,87.0,~12%,88.1b %,98.2c %,100,50.8b %
"c1ccc2c(c1)Cc1ccccc1-2 [Fluorene, fluorene]",4.18,–,1.3 × 10^−2,–,–,–,–,–,–,–,–,–,–,–,10.3a %
"c1ccc2ccccc2c1 [Naphthalene, naphthalene]",–,32,4.9 × 10^−2,–,–,–,–,–,–,–,–,–,–,–,–
"c1ccc2c(c1)ccc1ccccc12 [Phenanthrene, phenanthrene]",4.46,1.0,6.8 × 10^−4,–,–,–,–,–,–,–,–,–,–,–,16.8a %
"c1cc2ccc3cccc4ccc(c1)c2c34 [Pyrene, pyrene]",5.32,–,6.8 × 10^−7,77.1,58.3b %,58.9,16.3b %,15.5c %,88.3a %,51.0,–,15.5c %,26.3d %,95.4,53.4a %
